What was measured:
Type in all cases: cell-based
rat VR1 = biological target: T1, rat VR1 (Rattus norvegicus, UniProt O35433); assay: FLIPR calcium assay (fluo3-AM) with HEK293 cells stably expressing rat VR1
T1 construct: expressed in transfected cells
Protocol: Intracellular calcium is monitored with the calcium sensitive dye, fluo3-AM. HEK293 cells stably expressing rat VR1 were plated into a 96 well, poly-l-lysine treated FLIPR plate at 3×10^4 cells per well. On the following day, the plate was processed for FLIPR. FBP buffer was prepared (15 μM Probenecid (calcium ATPase pump blocker) in 1× FLIPR buffer (145 mM NaCl, 5 mM KCl, 1 mM MgCl2, 2 mM CaCl2, 10 mM glucose, 20 mM Hepes). FBP buffer pH was then adjusted to 7.4 with NaOH. 400 μl DMSO was added to a vial of fluo3-AM (Cambridge Bioscience, F-1241). The fluo3-AM solution was incubated at 37° C. for 10 min and vortexed. LOAD was prepared by adding 20 μl of fluo3-AM solution and 20 μl 20% pleuronic F-127 in DMSO (Cambridge Bioscience, P-3000) into 10 ml FBP. The 96 well plate containing cells was flicked off to remove cell medium. 100 μl LOAD was added per well. Cells were then incubated at 37° C. for 60 minutes. Capsaicin (a rVR1 agonist) and capsazepine (CPZ, a rVR1 antagonist) were prepared at 10× the desired final assay concentrations in FBP. The plate was flicked to remove LOAD from cells, and 180 μl FBP was added per well. […] Cells were monitored for 70 seconds after agonist addition. The FLIPR traces (fluorescence change (counts) versus time (seconds)) were produced for each well. […] The plate was incubated for 15 minutes at room temperature prior reading in the FLIPR.

hVR1 [1] = biological target: T2, hVR1 (Homo sapiens, UniProt Q8NER1, M315I/T469I); assay: Calcium imaging (fura2-AM) with HEK293 cells expressing hVR1; design: pClN5-new (B) with the full length hVR1 gene cloned via NotI and EcoRI restriction sites; expressed in transfected cells; host or cells: HEK293; conditions: 37° C.
T2 sequence (Q8NER1 whole entry M315I/T469I): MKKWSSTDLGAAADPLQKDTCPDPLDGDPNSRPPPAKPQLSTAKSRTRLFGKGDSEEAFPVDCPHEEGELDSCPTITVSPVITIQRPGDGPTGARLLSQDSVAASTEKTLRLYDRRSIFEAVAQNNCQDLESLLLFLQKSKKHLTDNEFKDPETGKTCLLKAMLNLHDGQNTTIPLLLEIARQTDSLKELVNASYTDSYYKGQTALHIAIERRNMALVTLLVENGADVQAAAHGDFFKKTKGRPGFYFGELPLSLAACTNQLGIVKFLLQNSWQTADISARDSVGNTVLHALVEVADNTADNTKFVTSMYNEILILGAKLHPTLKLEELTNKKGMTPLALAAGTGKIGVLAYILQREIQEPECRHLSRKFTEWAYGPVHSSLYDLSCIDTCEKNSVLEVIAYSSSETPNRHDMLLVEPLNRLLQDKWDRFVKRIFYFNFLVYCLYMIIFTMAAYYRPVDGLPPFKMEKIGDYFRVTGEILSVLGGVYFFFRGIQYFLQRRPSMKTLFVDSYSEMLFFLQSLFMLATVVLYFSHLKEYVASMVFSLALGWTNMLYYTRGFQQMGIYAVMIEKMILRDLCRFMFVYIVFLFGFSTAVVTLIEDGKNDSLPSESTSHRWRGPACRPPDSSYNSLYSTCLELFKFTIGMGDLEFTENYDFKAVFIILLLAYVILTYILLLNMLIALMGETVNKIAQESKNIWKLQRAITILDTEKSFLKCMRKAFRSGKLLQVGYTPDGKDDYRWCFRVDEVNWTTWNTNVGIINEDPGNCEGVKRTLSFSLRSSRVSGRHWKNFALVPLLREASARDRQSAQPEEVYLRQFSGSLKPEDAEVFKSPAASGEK

hVR1 [2] = biological target: T2, hVR1; assay: Whole-cell patch clamp electrophysiology of human VR-1 channels transiently expressed in HEK293T cells; design: pClN5-new (B) with the full length hVR1 gene cloned via NotI and EcoRI restriction sites; expressed in transfected cells; host or cells: HEK293T
Protocol: The activation of human VR-1 channels transiently expressed in HEK293T cells by capsaicin was investigated. Cells grown on poly-L-lysine-coated glass coverslips were placed in a recording chamber (0.5 ml) and superfused with extracellular solution (2 ml min^−1). The extracellular solution contained: NaCl (140 mM), KCl (5 mM), MgCl2 (2 mM), CaCl2 (2 mM), 4-(2-hydroxethyl)-1-piperazineethanesulphonic acid (HEPES, 10 mM) and glucose (10 mM). The pH was adjusted to 7.4 with NaOH and osmolarity ranged from 310-320 mOsm I^−1. Patch pipettes (borosilicate glass) were pulled using a Sutter P-97 electrode puller. The pipettes were filled with an internal solution consisting of: CsCl (140 mM), ethylene glycol-bis(β-aminoethyl ether) N,N,N′,N′-tetra acetic acid Cs salt (Cs-EGTA, 5 mM) and HEPES (10 mM). The pH was adjusted to 7.25 using CsOH and the osmolarity ranged from 275-290 mOsm. When filled with this internal solution, patch electrodes had resistances of 2-5 MΩ. Currents were recorded using standard whole-cell voltage clamp recording techniques (31) at room temperature (21-23° C.) using an Axopatch 200A amplifier and signals were sampled at 2 or 0.1 kHz. The majority of series resistance errors (80-85%) were minimized with compensation circuitry. Membrane potentials were not corrected for junction potentials (<4 mV). Voltage pulses and data collection were performed on-line using pClamp8 software (Axon Instruments) interfaced with amplifiers. Membrane potentials were maintained at −60 mV between protocols.
Capsaicin or capsazepine (CPZ) were applied, using a ‘fast-flow sytem’, directly onto the recording cell (<1 s to equilibrate). […]

[3] = 1 μM CPZ against 1 μM capsaicin, holding potential −60 mV

T1 sequence (O35433 whole entry): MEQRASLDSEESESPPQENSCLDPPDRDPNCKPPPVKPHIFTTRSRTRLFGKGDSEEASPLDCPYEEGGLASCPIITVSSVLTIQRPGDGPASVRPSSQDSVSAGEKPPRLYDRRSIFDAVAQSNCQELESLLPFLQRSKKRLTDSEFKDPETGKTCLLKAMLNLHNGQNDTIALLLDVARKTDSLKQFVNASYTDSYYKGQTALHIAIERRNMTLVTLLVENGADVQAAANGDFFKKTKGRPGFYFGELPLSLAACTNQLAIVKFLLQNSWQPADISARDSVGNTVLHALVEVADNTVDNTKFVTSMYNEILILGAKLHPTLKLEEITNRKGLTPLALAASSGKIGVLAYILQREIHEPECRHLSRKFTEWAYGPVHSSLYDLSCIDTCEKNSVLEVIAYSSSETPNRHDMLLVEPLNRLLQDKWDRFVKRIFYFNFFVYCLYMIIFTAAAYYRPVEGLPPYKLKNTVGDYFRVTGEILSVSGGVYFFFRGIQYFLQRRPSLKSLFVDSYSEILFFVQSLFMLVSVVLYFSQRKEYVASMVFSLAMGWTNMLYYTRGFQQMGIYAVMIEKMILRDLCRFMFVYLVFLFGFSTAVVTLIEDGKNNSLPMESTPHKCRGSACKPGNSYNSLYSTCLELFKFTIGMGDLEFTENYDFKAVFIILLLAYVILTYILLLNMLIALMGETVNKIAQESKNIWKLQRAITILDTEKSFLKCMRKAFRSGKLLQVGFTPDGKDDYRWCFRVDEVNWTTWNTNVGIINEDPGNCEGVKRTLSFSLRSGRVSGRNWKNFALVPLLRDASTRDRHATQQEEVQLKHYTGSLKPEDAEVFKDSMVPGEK

| calcium influx response after addition of agonist (hVR1 [1]) | current-voltage relationship (hVR1 [2]; 1 μM capsaicin, voltage ramps −100 to +70 mV) | size of capsaicin-evoked current when external calcium replaced (hVR1 [2]; capsaicin 1 μM, external calcium replaced with 5 mM EGTA) | current evoked by application of capsaicin (hVR1 [2]; capsaicin 1 μM, membrane held at −60 mV, HEK293T transiently expressing human VR1) | antagonism of the capsaicin VR1 response (FLIPR peak heights) (rat VR1; cells pre-incubated in CPZ 15 minutes at room temperature) | blockade of capsaicin-evoked inward current (hVR1 [2]; [3]) | reversibility of blockade (hVR1 [2]; [3]) | blockade of capsaicin-evoked current in voltage ramps (hVR1 [2]; 1 μM CPZ against 1 μM capsaicin, voltage ramps −100 to +70 mV) | recovery after blockade in voltage ramps (hVR1 [2]; 1 μM CPZ, especially inward currents evoked by negative potentials) | SMILES | FLIPR trace after agonist addition (fluorescence change) (rat VR1; HEK293 stably expressing rVR1, monitored 70 seconds after addition) | reduction of current by the 6th addition (desensitisation, rundown) (hVR1 [2]; capsaicin 1 μM added at 2 min intervals for about 40 s, 2 mM external calcium, current at +65 mV) |
| --- | --- | --- | --- | --- | --- | --- | --- | --- | --- | --- | --- |
| stimulated to influx calcium | substantial outward rectification | increased dramatically | produces an inward current | – | – | – | – | – | COc1cc(CNC(=O)CCCC/C=C/C(C)C)ccc1O [capsaicin] | Peaks indicate capsaicin-gated calcium influx | about 4 fold |
| – | – | – | – | peak heights are reduced | abolished | partially reversible | completely blocked the current | only partial recovery was observed | Oc1cc2c(cc1O)CN(C(=S)NCCc1ccc(Cl)cc1)CCC2 [CPZ, capsazepine] | – | – |
